Here are results for 20 compounds from publication PMC4727778, “Synthesis and Antifungal Evaluation of Novel N-Alkyl Tetra- and Perhydroquinoline Derivatives” (Scientia Pharmaceutica, 2014).

In series [1] the test system is Escherichia coli (DSMZ-Nr. 426). In words: Agar diffusion assay. Particulars: E. coli, GI = growth inhibition, read-out: diameter of zones of total inhibition. The series is classed as cell-based. The method, then: (§1) The resulting compounds and known compounds, 1-undecylpiperidine (7) and 1-decylpiperazine (8a), as well as 1-methyl-4-undecylpiperazine (8b) (prepared in the same way), were tested in an agar diffusion assay against Gram-positive (Staphylococcus equorum (DSMZ-Nr. 20675), Streptococcus entericus (DSZM-Nr. 14446)) and Gram-negative bacteria (Escherichia coli (DSMZ-Nr. 426), Pseudomonas marginalis (DSMZ-Nr. 7527)), as well as the fungi Yarrowia lipolytica (DSMZ-Nr. 1345), Candida glabrata (DSMZ-Nr.11226), Aspergillus niger (DSMZ-Nr. 1988), and Hyphopichia burtonii (DSMZ-Nr. 70663) (Table 1).
For orientation: In agar diffusion tests the substance spreads into inoculated agar from a disc or well.

Series [2] concerns Staphylococcus equorum (DSMZ-Nr. 20675). In words: Agar diffusion assay. Particulars: read-out: diameter of zones of total inhibition. The class given is cell-based. As to the method:
as §1

The test system of series [3] is Pseudomonas marginalis (DSMZ-Nr. 7527). In words: Agar diffusion assay. The note with it: P. marginalis, GI = growth inhibition, read-out: diameter of zones of total inhibition. The series is classed as cell-based. As to the method:
as §1

For series [4], the system named is Aspergillus niger (DSMZ-Nr. 1988). As to the kind of experiment: Agar diffusion assay. The series is classed as cell-based. The note with it: A. niger, GI = growth inhibition, read-out: diameter of zones of total inhibition. As to the method: as §1
For series [5], the system named is Candida glabrata (DSMZ-Nr.11226). As to the kind of experiment: Agar diffusion assay. The class given is cell-based. The note with it: Nakaseomyces glabratus, C. glabrata, GI = growth inhibition, read-out: diameter of zones of total inhibition. As to the method: as §1
Series [6] relates to Hyphopichia burtonii (DSMZ-Nr. 70663). In words: Agar diffusion assay. The class given is cell-based. Particulars: H. burtonii, GI = growth inhibition, read-out: diameter of zones of total inhibition. As to the method:
as §1

In series [7] the test system is Streptococcus entericus (DSZM-Nr. 14446). As to the kind of experiment: Agar diffusion assay. The series is classed as cell-based. Particulars: S. entericus, GI = growth inhibition, read-out: diameter of zones of total inhibition. The method, then: as §1
Series [8] relates to Yarrowia lipolytica (DSMZ-Nr. 1345). In words: Agar diffusion assay. The series is classed as cell-based. The note with it: Y. lipolytica, GI = growth inhibition, read-out: diameter of zones of total inhibition. The method, then:
as §1

Series [9] relates to human leukemia cell line (HL 60). As to the kind of experiment: MTT test (cytotoxicity). The class given is cell-based. Particulars: HL 60 cell line, arithmetic average of three determinations. As to the method:
The cytotoxicity of the compounds 3a–d, 5a–d, and 8b was determined in an MTT test against a human leukemia cell line (HL 60).
Background: Tetrazolium assays rely on reduction of a dye to a coloured formazan, in cell work by metabolically active cells.

Series [10] concerns Candida glabrata. In words: Microdilution assay (MIC). The series is classed as cell-based. The note with it: Nakaseomyces glabratus, hydrochlorides used, arithmetic average of two determinations, read-out: Minimal inhibitory concentration (MIC). The method, then: (§2) For comparison, the N-undecylperhydroisoquinoline (C) was also tested here. For solubility reasons, the hydrochlorides were used in this assay (Table 2).

Series [11] relates to Saccharomyces cerevisiae. As to the kind of experiment: Microdilution assay (MIC). The series is classed as cell-based. Particulars: hydrochlorides used, arithmetic average of two determinations, read-out: Minimal inhibitory concentration (MIC). As to the method: as §2
Series [12] has as its system Yarrowia lipolytica. As to the kind of experiment: Microdilution assay (MIC). Particulars: hydrochlorides used, arithmetic average of two determinations, read-out: Minimal inhibitory concentration (MIC). The class given is cell-based. The method, then: as §2
In general terms: In broth dilution the organism is exposed to a series of concentrations in liquid medium.

In brackets after ≈: the same amount, converted by molar mass. Where a name gives a salt, the structure may show the parent alone.

The melting point is the temperature of the solid-liquid transition. Take `CCCCCCCCCN1CCC[C@@H]2CCCC[C@H]21` (racemic) (as salt: hydrochloride) [Compound 5a, (±)-trans-1-Nonyldecahydroquinoline hydrochloride]: the melting point worked out at 130 °C.

For `CCCCCCCCCCN1CCC[C@@H]2CCCC[C@H]21` (racemic) (as salt: hydrochloride) [Compound 5b, (±)-trans-1-Decyldecahydroquinoline hydrochloride], the melting point came out at 128 °C.

As to `CCCCCCCCCCCN1CCC[C@@H]2CCCC[C@H]21` (racemic) (as salt: hydrochloride) [Compound 5c, (±)-trans-1-Undecyldecahydroquinoline hydrochloride], the melting point stood at 119 °C.

As to `CCCCCCCCCCCCN1CCC[C@@H]2CCCC[C@H]21` (racemic) (as salt: hydrochloride) [Compound 5d, (±)-trans-1-Dodecyldecahydroquinoline hydrochloride], the melting point turned out to be 113 °C.

In the case of `CCCCCCCCCN1CCC[C@@H]2CCCC[C@H]21` (racemic) [Compound 4a, (±)-trans-1-Nonyldecahydroquinoline], the zone of inhibition at 50 µg/disc in series [1] stood at 0 mm; in series [2], 10 mm; in series [3], 13 mm; in [4] it was 7 mm; in [5] it was 14 mm; in series [6], 12 mm. Further, the zone of inhibition at 50 µg/disc amounted to 20 mm in [7] and 15 mm in series [8].

Consider `CCCCCCCCCCN1CCC[C@@H]2CCCC[C@H]21` (racemic) [Compound 4b, (±)-trans-1-Decyldecahydroquinoline], for which the zone of inhibition at 50 µg/disc in series [1] worked out at 0 mm; in series [2], 13 mm; in [3] it was 15 mm; in series [4], 12 mm; in [5], 16 mm; in [6] it was 20 mm. For the same compound, the zone of inhibition at 50 µg/disc in series [7] was determined as 22 mm; in series [8], 19 mm.

In the case of `CCCCCCCCCCCN1CCC[C@@H]2CCCC[C@H]21` (racemic) [Compound 4c, (±)-trans-1-Undecyldecahydroquinoline], the zone of inhibition at 50 µg/disc in [1] came out at 0 mm; in [2], 12 mm; in series [3], 11 mm; in series [4], 14 mm; in series [5], 13 mm; in series [6], 13 mm. Besides, the zone of inhibition at 50 µg/disc in series [7] was found to be 20 mm; in series [8] it was 13 mm.

Turning to `CCCCCCCCCCCCN1CCC[C@@H]2CCCC[C@H]21` (racemic) [Compound 4d, (±)-trans-1-Dodecyldecahydroquinoline], the zone of inhibition at 50 µg/disc was 0 mm in series [1]; 9 mm in series [2]; 14 mm in [3]; 9 mm in series [5]; 11 mm in series [6]; 12 mm in series [7]. Also, the zone of inhibition at 50 µg/disc in series [8] is 9 mm.

Take `CCCCCCCCCN1CCCc2ccccc21` [Compound 2a, 1-Nonyl-1,2,3,4-tetrahydroquinoline]: the zone of inhibition at 50 µg/disc in series [1], in series [2], in series [3], in series [4], in series [5] and in series [6] was 0 mm each time. The zone of inhibition at 50 µg/disc in [7] and in [8] was 0 mm in each case.

As for `CCCCCCCCCCN1CCCc2ccccc21` [Compound 2b, 1-Decyl-1,2,3,4-tetrahydroquinoline], the zone of inhibition at 50 µg/disc in series [1], in [2], in series [3], in series [4], in [5] and in [6] was 0 mm throughout. The zone of inhibition at 50 µg/disc in series [7] and in series [8] was 0 mm each time.

As for `CCCCCCCCCCCN1CCCc2ccccc21` [Compound 2c, 1-Undecyl-1,2,3,4-tetrahydroquinoline], the zone of inhibition at 50 µg/disc in [1], in [2], in series [3], in [4], in series [5] and in series [6] was 0 mm in each case. Further, the zone of inhibition at 50 µg/disc in series [7] and in series [8] was 0 mm throughout.

Turning to `CCCCCCCCCCCCN1CCCc2ccccc21` [Compound 2d, 1-Dodecyl-1,2,3,4-tetrahydroquinoline], the zone of inhibition at 50 µg/disc in series [1], in series [2], in [3], in series [4], in series [5] and in [6] was 0 mm in each case. The zone of inhibition at 50 µg/disc in series [7] and in series [8] was 0 mm throughout.

As a reminder, the IC50 is the concentration at which inhibition is half-maximal. Read a low IC50 as inhibition by little substance. Compound `CCCCCCCCCN1CCCc2ccccc21.Cl` [Compound 3a, 1-Nonyl-1,2,3,4-tetrahydroquinoline hydrochloride] registered a melting point of 65 °C. In series [9], this compound returned a half-maximal inhibitory concentration (IC50) of 19 µM.

Turning to `CCCCCCCCCCN1CCCc2ccccc21.Cl` [Compound 3b, 1-Decyl-1,2,3,4-tetrahydroquinoline hydrochloride], the melting point came to 61 °C. It took 60 µM to reach half-maximal inhibition in [9] (IC50).

Compound `CCCCCCCCCCCN1CCCc2ccccc21.Cl` [Compound 3c, 1-Undecyl-1,2,3,4-tetrahydroquinoline hydrochloride] yielded a melting point of 52 °C. In [9], this compound came in with an IC50 of 16 µM.

With `CCCCCCCCCCCCN1CCCc2ccccc21.Cl` [Compound 3d, 1-Dodecyl-1,2,3,4-tetrahydroquinoline hydrochloride], the melting point came to 49 °C. The half-inhibitory concentration (IC50) in [9] is 15 µM.

In turn, `CCCCCCCCCCCC(=O)N1CCCc2ccccc21` [Compound 6, N-Dodecanoyl-1,2,3,4-tetrahydroquinoline] came in with a melting point of 37 °C. In addition, the zone of inhibition at 50 µg/disc in series [1] came out at 0 mm. Also, in series [2], the zone of inhibition at 50 µg/disc was 0 mm. Also, the zone of inhibition at 50 µg/disc in [3] amounted to 0 mm. For the same compound, the zone of inhibition at 50 µg/disc in series [4] was determined as 0 mm. Also, the zone of inhibition at 50 µg/disc in series [5] is 0 mm. The zone of inhibition at 50 µg/disc in series [6] amounted to 0 mm. Moreover, the zone of inhibition at 50 µg/disc in [7] was determined as 0 mm. Moreover, the zone of inhibition at 50 µg/disc in series [8] is 0 mm.

As for `CCCCCCCCCCN1CCNCC1` [Compound 8a, 1-decylpiperazine, reference compound], the MIC in series [10] was determined as 45 µg/mL (≈ 199 µM); in [11] it was 5 µg/mL (≈ 22.1 µM); in [12] it was 10 µg/mL (≈ 44.2 µM). In addition, the zone of inhibition at 50 µg/disc in [1] worked out at 7 mm; in series [2], 13 mm; in [3] it was 8 mm; in series [4], 20 mm; in series [5], 8 mm; in series [6], 25 mm. The zone of inhibition at 50 µg/disc in series [7] was 17 mm; in series [8], 22 mm.

On to `CN(C/C=C/C#CC(C)(C)C)Cc1cccc2ccccc12` [terbinafine, reference compound], for which the zone of inhibition at 50 µg/disc in series [4] turned out to be 26 mm; in series [5], 0 mm; in series [6], 15 mm; in series [8], 12 mm.

Regarding `CN(C)[C@@H]1C(O)=C(C(N)=O)C(=O)[C@@]2(O)C(O)=C3C(=O)c4c(O)cccc4[C@@](C)(O)[C@H]3C[C@@H]12` [tetracycline, reference compound], the zone of inhibition at 50 µg/disc in series [1] is 26 mm; in series [2], 30 mm; in series [3] it was 12 mm; in [4], 0 mm; in series [5] it was 0 mm; in [6], 0 mm. Also, the zone of inhibition at 50 µg/disc was found to be 10 mm in [7] and 0 mm in series [8].
